Measurements taken from patent US20260242759A1, “GQ/11 Protein Peptidomimetics” (Vrije Universiteit Brussel, priority 2022, published 2026).
Positions of bridges follow the written chain, without caps; N, C: chain ends. Non-standard residues stand in square brackets, D forms with d. Residues, ends and D or L forms follow the SMILES beside them. Triazole bridges read from a SMILES are 1,4-linked. Lys(N3) = [N-]=[N+]=NCCCC[C@H](N)C(=O)O; Cha = N[C@@H](CC1CCCCC1)C(=O)O; Pra = C#CC[C@H](N)C(=O)O

Key:
[1] = molecular target: T1, human ghrelin receptor (GHSR) (Homo sapiens, UniProt Q92847, C146S/C304S); experiment: Bimane fluorescence assay on purified ghrelin receptor in nanodiscs; format: biochemical; conditions: for conformational change in the receptor: in presence of JMV1843
T1 construct: integrin α5 fragment (N); polyhistidine tag (C); made in house; host or cells: E. coli BL21(DE3)
Text: Another assay that can be used to analyse conformational changes associated with GPCR activation and/or to identify G protein peptidomimetics that are capable of stabilizing a GPCR in an active conformational state is the bimane fluorescence assay or bimane assay. This assay works through labelling of a cysteine residue in the lower part of the TM6 of a GPCR with a bimane-fluorophore (monobromobimane (MB)). Binding of an agonist to the GPCR causes a conformational change and outward movement of TM6 that places bimane in a more solved-exposed position, which will alter its maximum emission wavelength. In particular, increasing concentrations of agonist result in a concentration-dependent red-shift of the maximum emission wavelength (λmax) of the bimane-fluorophore probe. In the presence of a G protein or an active state stabilizing G protein peptidomimetic λmax may increase further. For example, a bimane labelled ghrelin receptor (such as a cysmin mutant (i.e. mutant with minimal cysteines) of human ghrelin receptor (also referred to herein as growth hormone secretagogue receptor (GHSR) (e.g. the mutant as described in Damian et al. (2021) wherein monobromobimane (MB) fluorescent probe is attached to Cys^255) and ghrelin receptor agonist JMV1843 may be used.
The bimane fluorescence assays on the ghrelin receptor were performed as described in Damian et al. (2021. Nat. Commun. 12:1-15). Briefly, E. coli bacteria (BL21(DE3)) were transformed with a vector encoding the human ghrelin receptor with an integrin α5 fragment at the N-terminus and a polyhistidine tag at the C-terminus. The receptors were then purified and reconstituted into lipidated nanodiscs. The monobromobimane labeling was performed by incubating the receptors, with a unique reactive cysteine at position 255, during 16 h in the dark at 4° C. and in the presence of 0.1 mM tris(2-carboxyethyl)phosphine (TCEO). The reaction was terminated with 5 mM L-cysteine and unreacted monobromobimane was removed using a Zeba™ Spin desalting column.
For the fluorescence assay, the labeled receptor was incubated during 2 h at 20° C. (0.2 μM final concentration), in the absence or presence of the full agonist JMV1843 (20 μM) and in the absence or presence of either the peptidomimetics at varying molar ratios or the purified Gαqβ1γ2 heterotrimer, at a 1:5 receptor-to-G protein molar ratio. Afterwards, the fluorescence experiments were performed on a Horiba Fluoromax-4 TCSP spectrofluorimeter. For each scan, the excitation wavelength (λexc) was set at 380 nm and emission was collected between 440 nm and 520 nm.
The bimane assay is used on GPCRs to detect conformational changes associated with receptor activation. This assay functions through the labelling of a cysteine, which is one of the least frequently occurring amino acids in proteins. Additionally, the majority of the extracellular cysteines form disulfide bonds, which, together with the transmembrane cysteines, are inert to thiol-reactive reagents. Additionally, some of the intracellular cysteines in the C-terminal tail may carry post-translational modifications which reduces the number of reactive cysteines in the receptor (Tian et al. 2017. Chem. Rev. 117:186-245). For GHSR, the remaining reactive cysteine residues C146 (ICL2) and C304 (extracellular end of TM7) were replaced by serines (cysmin mutant, i.e. mutant with minimal cysteines), to allow the monobromobimane (MB) fluorescent probe to be specifically attached to Cys255 in the lower part of TM6 (FIG. 5a) (Damian et al. 2021). In this assay, bimane is chosen because of its small size and sensitivity to the polarity of its environment (Yao et al. 2006. Nat Chem. Biol. 2:417-422). Binding of a ligand to the receptor, causes a conformational change and outward movement of TM6 that places bimane in a more solvent-exposed position, which alters its maximum emission wavelength. […]

[2] = molecular target: T2, human muscarinic 1 receptor (M1R) (Homo sapiens, UniProt P11229); experiment: Radioligand binding assay (RLA) on M1R membrane extracts; conditions: for Shift: IC50 of agonist without mimetic divided by IC50 with mimetic, averaged value
T2 construct: The M1R constructs used in this assay consisted of the full-length human muscarinic 1 receptor; FLAG (N); expressed in transfected cells; membrane extracts
T2 sequence (P11229 1-460): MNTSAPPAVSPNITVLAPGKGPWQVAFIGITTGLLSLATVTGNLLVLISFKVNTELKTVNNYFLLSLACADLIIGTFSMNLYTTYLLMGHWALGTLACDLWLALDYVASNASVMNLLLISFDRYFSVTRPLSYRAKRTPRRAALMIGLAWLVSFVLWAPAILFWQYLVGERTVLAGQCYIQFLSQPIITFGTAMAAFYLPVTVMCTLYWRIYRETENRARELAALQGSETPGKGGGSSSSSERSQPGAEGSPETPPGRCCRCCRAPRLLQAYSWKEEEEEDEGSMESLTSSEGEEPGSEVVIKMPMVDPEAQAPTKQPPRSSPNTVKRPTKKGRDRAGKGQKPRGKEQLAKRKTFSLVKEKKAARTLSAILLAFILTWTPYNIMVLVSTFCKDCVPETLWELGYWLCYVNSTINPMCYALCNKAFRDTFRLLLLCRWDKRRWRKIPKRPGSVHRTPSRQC
Text: A radioligand displacement assay can quantify the pharmacological stabilization of the GPCR in the active conformation by comparing the affinities of an agonist for the basal versus the active GPCR conformer. In particular, stabilization of a GPCR in an active conformational state or specific binding to a GPCR in an active conformational state by a G protein peptidomimetic or a Gq/11 protein peptidomimetic as disclosed herein can be determined based on the shift in IC50 value of a ligand, in particular an agonist more particularly an orthosteric agonist, which binds to the GPCR when tested in the presence and the absence of the G protein peptidomimetic or the Gq/11 protein peptidomimetic. During the assay, the binding affinity of an orthosteric agonist for the receptor in presence and absence of the (allosteric) peptidomimetic is determined. Therefore, the GPCR, e.g. embedded in membrane extracts, is incubated with a radioligand and different concentrations of the agonist. By increasing the agonist concentration, radioligand will be displaced by the agonist. A leftward shift of the curve in the presence of the peptidomimetic is indicative of a peptidomimetic capable of stabilizing a GPCR in an active conformational state. A “shift” in IC50 value or IC50 shift is defined herein as the IC50 ratio of a ligand, in particular an agonist, more particularly an orthosteric agonist, which binds to the GPCR in the absence of a G protein peptidomimetic or a Gq/11 protein peptidomimetic relative to the presence of the G protein peptidomimetic or the Gq/11 protein peptidomimetic, or the IC50 value of a ligand, in particular an agonist, for binding to the GPCR in the absence of a G protein peptidomimetic or a Gq/11 protein peptidomimetic divided by the IC50 value of the ligand in the presence of the G protein peptidomimetic or the Gq/11 protein peptidomimetic in the same preparation, wherein said IC50 values are determined in a radioligand binding assay or radioligand displacement assay (RLA) as known to the skilled person. For example, a human muscarinic acetylcholine 1 receptor (M1R) radioligand binding assay using ^3H—N-methyl scopolamine (^3H-NMS) as the radioligand and increasing concentrations of acetylcholine chloride (agonist) as cold competitor may be used.
The membrane extracts were prepared from cells that overexpressed muscarinic acetylcholine 1 receptor (M1R), by resuspending the cell pellet in a buffer (1 ml buffer/2×1E7 cells) containing 20 mM Hepes (pH 7.4), 100 mM NaCl, Leupeptin and phenylmethylsulfonyl fluoride (PMSF). Afterwards the cells were vortexed and homogenized in ice using a small volume ULTRA-TURRAX® (6×10 sec). The cells were then centrifuged for 15 min at 16000 rcf, in a pre-cooled centrifuge (4° C.) and resuspended in the previous buffer containing 10% sucrose. Finally, the membranes were again homogenized in ice with the small volume ULTRA-TURRAX® (3×10 sec). The protein concentration in the membrane extracts was determined using a Pierce™ bicinchoninic acidv (BCA) Protein Assay Kit and the protein concentration was extrapolated from the Bovine Serum Albumine standard curve.
The M1R constructs used in this assay consisted of the full-length human muscarinic 1 receptor with a FLAG tag at the N-terminus. A buffer containing 20 mM Hepes pH 7.4, 100 mM NaCl, and 0.1% BSA was used for the ligands, membrane extracts and peptides (+1% dimethylsulfoxide (DMSO)). The competition assay was performed with [3H]—N-methyl scopolamine ([3H]-NMS) as radiolabeled antagonist, at a final concentration of 0.6 nM. A ten-fold dilution series of the agonist, acetylcholine chloride, was prepared to obtain a dose response curve. After incubation, the samples were harvested into filter plates (GF/C) and washed with ice cold washing buffer (20 mM Hepes pH 7.4) using the 96-well harvester. […]

[3] = bimane labeled GHSR, in presence of full agonist JMV1843 (20 μM)

T1 sequence (Q92847 whole entry C146S/C304S, the tested form may be a part): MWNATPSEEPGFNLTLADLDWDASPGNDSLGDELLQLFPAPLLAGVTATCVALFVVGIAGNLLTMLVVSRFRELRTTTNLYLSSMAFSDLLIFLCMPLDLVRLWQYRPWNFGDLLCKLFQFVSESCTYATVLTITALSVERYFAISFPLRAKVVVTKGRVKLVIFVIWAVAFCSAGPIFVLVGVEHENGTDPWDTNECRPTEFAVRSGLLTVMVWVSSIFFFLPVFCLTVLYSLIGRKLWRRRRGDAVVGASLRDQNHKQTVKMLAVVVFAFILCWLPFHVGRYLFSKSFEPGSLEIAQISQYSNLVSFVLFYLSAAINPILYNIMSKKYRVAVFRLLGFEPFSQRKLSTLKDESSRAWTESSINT

Compound | Shift [2] | conformational change in the receptor ([1]; bimane labeled GHSR) | also measured
CC[C@H](C)[C@H](NC(=O)[C@@H]1CCCCn2cc(nn2)C[C@H](NC(=O)[C@H](C)NC(=O)[C@H](Cc2ccccc2)NC(=O)[C@H](CCCCN)NC(=O)[C@H](CCCCN)NC(=O)[C@H](CCCCN)NC(C)=O)C(=O)N[C@@H](C(C)C)C(=O)N[C@@H](CCCCN)C(=O)N[C@@H](CC(=O)O)C(=O)N1)C(=O)N[C@@H](CC(C)C)C(=O)N[C@@H](CCC(N)=O)C(=O)N[C@@H](CC(C)C)C(=O)N[C@@H](CC(N)=O)C(=O)N[C@@H](CC(C)C)C(=O)N[C@@H](CCCCN)C(=O)N[C@@H](CCC(=O)O)C(=O)N[C@@H](Cc1ccc(O)cc1)C(=O)N[C@@H](CC(N)=O)C(=O)N[C@@H](CC(C)C)C(=O)N[C@H](C(=O)O)C(C)C [SBL-GQ-05] (Ac-KKKFA[Pra]VKD[Lys(N3)]ILQLNLKEYNLV-OH; triazole 6-10) | – | – | Emax ([1]; highest peptide concentrations (GHSR:peptide 1:50, 1:100), with JMV1843, read-out: effect normalized to the maximal effect of the Gq protein): ~90%
Ac-KKKFNDCKDIILQMNLREYNLV-OH [SBL-GQ-08] | 2 | not able to induce a conformational change | –
Ac-KKKFAAVKDTILQLNLKEYNLV-OH [SBL-GQ-02] | 2 | not able to induce a conformational change | –
CC(C)(N)C(=O)N[C@H](Cc1c[nH]c2ccccc12)C(=O)N[C@H](Cc1c[nH]c2ccccc12)NC=O [JMV1843, reference compound] | – | – | maximum emission wavelength of bimane ([1]; agonist JMV1843 alone, in the absence of the Gq protein): ~476 nm
CC[C@H](C)[C@H](NC(=O)[C@@H](NC(=O)[C@H](CC(=O)O)NC(=O)[C@H](CCCCN)NC(=O)[C@@H](NC(=O)[C@H](C)NC(=O)[C@H](C)NC(=O)[C@H](Cc1ccccc1)NC(C)=O)C(C)C)[C@@H](C)O)C(=O)N[C@@H](CC(C)C)C(=O)N[C@@H](CCC(N)=O)C(=O)N[C@@H](CC(C)C)C(=O)N[C@@H](CC(N)=O)C(=O)N[C@@H](CC(C)C)C(=O)N[C@@H](CCCCN)C(=O)N[C@@H](CCC(=O)O)C(=O)N[C@@H](Cc1ccc(O)cc1)C(=O)N[C@@H](CC(N)=O)C(=O)N[C@@H](CC1CCCCC1)C(=O)N[C@H](C(=O)O)C(C)C [SBL-GQ-03] (Ac-FAAVKDTILQLNLKEYN[Cha]V-OH) | – | not able to induce a conformational change | –
CC[C@H](C)[C@H](NC(=O)[C@@H]1CCCCn2cc(nn2)C[C@H](NC(=O)[C@H](CC(N)=O)NC(=O)[C@H](Cc2ccccc2)NC(=O)[C@H](CCCCN)NC(=O)[C@H](CCCCN)NC(=O)[C@H](CCCCN)NC(C)=O)C(=O)N[C@@H](CS)C(=O)N[C@@H](CCCCN)C(=O)N[C@@H](CC(=O)O)C(=O)N1)C(=O)N[C@@H](CC(C)C)C(=O)N[C@@H](CCC(N)=O)C(=O)N[C@@H](CCSC)C(=O)N[C@@H](CC(N)=O)C(=O)N[C@@H](CC(C)C)C(=O)N[C@@H](CCCNC(=N)N)C(=O)N[C@@H](CCC(=O)O)C(=O)N[C@@H](Cc1ccc(O)cc1)C(=O)N[C@@H](CC(N)=O)C(=O)N[C@@H](CC1CCCCC1)C(=O)N[C@H](C(=O)O)C(C)C [SBL-GQ-12] (Ac-KKKFN[Pra]CKD[Lys(N3)]ILQMNLREYN[Cha]V-OH; triazole 6-10) | 34 | – | increase of agonist affinity / stabilization of the receptor ([2]; acetylcholine chloride, mimetic at 100 μM): more significant and promising stabilization of the receptor; maximum emission wavelength of bimane [1, 3]: ~478 nm
Gq protein: purified Gαqβ1γ2 heterotrimer used as reference in the bimane assay | – | – | maximum emission wavelength of bimane [1, 3]: ~480.5 nm
Ac-FAAVKDTILQLNLKEYNLV-OH [SBL-GQ-01] | – | not able to induce a conformational change | –
